pIC50: −log10 of the molar value.
Molecular target: Serine/threonine-protein kinase PLK1 (Homo sapiens, UniProt P53350)
Experiment: PLK1 kinase inhibition, dose response, selectivity assay for PKD inhibitor project, biochemical (AID 1383)

Sequence of Serine/threonine-protein kinase PLK1 (P53350 whole entry): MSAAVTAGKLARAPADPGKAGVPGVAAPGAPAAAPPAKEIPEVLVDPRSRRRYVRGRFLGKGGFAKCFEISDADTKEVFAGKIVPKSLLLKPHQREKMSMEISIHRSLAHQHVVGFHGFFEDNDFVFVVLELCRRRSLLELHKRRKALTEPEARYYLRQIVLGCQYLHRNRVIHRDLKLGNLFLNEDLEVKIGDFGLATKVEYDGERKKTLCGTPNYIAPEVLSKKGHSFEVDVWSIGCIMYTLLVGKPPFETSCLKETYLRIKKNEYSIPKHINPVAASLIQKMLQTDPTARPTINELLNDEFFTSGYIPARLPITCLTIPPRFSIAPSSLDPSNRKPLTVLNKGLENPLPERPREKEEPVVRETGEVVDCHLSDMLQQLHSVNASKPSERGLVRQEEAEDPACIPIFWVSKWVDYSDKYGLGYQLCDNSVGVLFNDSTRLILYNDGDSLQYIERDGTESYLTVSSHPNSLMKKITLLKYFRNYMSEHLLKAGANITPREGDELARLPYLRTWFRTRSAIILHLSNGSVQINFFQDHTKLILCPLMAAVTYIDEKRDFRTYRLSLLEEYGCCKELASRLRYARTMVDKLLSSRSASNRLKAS

Row | SMILES | pIC50
1 | N=C(N)NC(=O)c1nc(Cl)c(N)nc1N [3,5-diamino-N-carbamimidoyl-6-chloropyrazine-2-carboxamide] | 5.18
2 | CC(=O)Oc1cc(OC(C)=O)c2c(C)cc(=O)oc2c1 [(5-acetyloxy-4-methyl-2-oxochromen-7-yl) acetate] | < 4.30
3 | Cc1cc(NCCCN)nc(-c2ccccc2O)n1 [MLS000079650] | < 4.30
4 | CCC(=O)Nc1c2c(nn1-c1ccccc1C)CSC2 [MLS000087884] | < 4.30
5 | CS(=O)(=O)N1CCN(c2ccccc2NC(=O)c2ccc(Br)o2)CC1 [MLS000123947] | < 4.30
6 | NC(=O)c1cn([C@@H]2O[C@H](CO)[C@@H](O)[C@H]2O)c2ncnc(N)c12 [MLS000517268] | 4.92
7 | O=C(Nc1ccc(CN2CCOCC2)cc1)c1ccc(-c2cccc(Cl)c2)o1 [MLS000557592] | < 4.30
8 | CCC1=NNc2cccc3c(OC)ccc1c23 [SMR000140796] | < 4.30
9 | Clc1cncc(Cl)c1N=NCc1ccncc1 [SMR000206620] | < 4.30
